{"source": "patent US20250161310A1", "about": "“PHARMACEUTICAL COMBINATIONS FOR USE IN THE TREATMENT OF NEOPLASTIC DISEASES” (priority 2022, published 2025)", "key": {"[1]": {"tested_on": "BR1282 TNBC PDX tumor", "assay": "first PDX combination study (carboplatin first), BR1282", "method": "In a first PDX study, female BALB/c nude mice (CrownBio) of at least 20 g body weight were subcutaneously (s.c.) inoculated in the right flank with tumor fragments (3*3*3 mm) from stock mice bearing the patient-derived xenograft (PDX) triple negative breast cancer (TNBC) tumor, BR1282. Randomization into 5 different treatment groups (8 mice per group) was made when the mean tumor size was 150-200 mm^3. Mice were dosed intravenously (i.v.) twice weekly (2qw) with the compound of formula (I) (7 mg/kg, i.v., 5 mL/kg) or once weekly (qw) carboplatin (60 mg/kg, i.v., 10 mL/kg) or the combination of these doses, in which the compound of formula (I) was administered after carboplatin using either a 4 h or a 24 h gap, when both compounds were administered on the same day/consecutive days. The fifth group received both vehicles using the time interval of 4 h and all groups were dosed twice via the tail vein. Dosing was delayed by 1 day in any mice showing transient body weight loss of >10% at any time point.\n(§1) Carboplatin was purchased from Qilu Pharmaceutical Co. Ltd. as a solution (10 mg/mL in 5% (w/v) glucose in pure water). The compound of formula (I) was supplied as a powder by Basilea Pharmaceutica International Ltd. and was prepared freshly as a solution in Ethanol:PEG400:Citric acid 20 mM, at a ratio of 1:1:8 and at a final pH of 3.7, for immediate administration.\n(§2) Body weights and tumor volumes were determined at least twice per week, the latter by measuring two dimensions with calipers and applying the formula “V=(L×W^2)/2”, where V is the tumor volume, and L and W are the tumor length and width re-spectively. […] Mice were also culled if the BWL was determined to be >15% for 3 consecutive days. Any mice with >10% BWL, automatically were dosed on one of the following days, as soon as the BWL returned to <10%. All animal protocols were reviewed and approved by the relevant local committees in China, where the studies were performed.\n(§3) The statistical significance of efficacy were determined in two different ways using a) the endpoint on day 10 or day 14 depending on the study when it was necessary to cull the vehicle group because of tumor volume exceeding 1500 mm^3, and b) at the endpoint of day 31 in the first study when exponential curve fits were applied to estimate the rates of tumor growth in the different groups. The degree of an effect was quantified by the delta (A) treated/control ratio (ΔT/C) and the statistical significance of the effect was determined by a one-way analysis of variance (1W-ANOVA) with Holms-Sidak applied post-hoc for multiple determinations, where a p-value of <0.05 was considered statistically significant. In addition, an assessment of the combination effect was made based upon the Clarkes Combination Index (CCI), where the CCI=ΔT/CAB−(ΔT/CA*ΔT/CB) in which A and B are two different compounds and AB the combination thereof, where CCI<−0.1 indicates synergy (or a positive interaction), +0.1 (antagonism, or a negative interaction) and between −0.1 and +0.1 indicates additivity (no interaction); see O'Reilly et al. Anti Cancer Drugs 2011; 22:58-78."}, "[2]": {"tested_on": "BR1282 TNBC PDX tumor", "assay": "second PDX combination study (compound of formula (I) first), BR1282", "method": "In a second PDX study, the same model was used as for the first study (TNBC BR1282 PDX model), but this time compound of formula (I) (8 mg/kg, i.v., qw, 5 mL/kg) was administered first and carboplatin (60 mg/kg, i.v., qw, 6 mL/kg) second using a 4 h gap between both administrations and compound of formula (I) was provided qw. Consequently, the mice received both compounds on the same day (4 h gap).\nas §1, §2, §3"}, "[3]": {"tested_on": "SKOV-3 s.c. xenografts", "assay_type": "in vivo", "conditions": "day 23; monotherapy: Formula (I) 7 mg/kg iv 2qw; Carboplatin 60 mg/kg iv qw", "method": "The anti-tumor activity of the compound of formula (I) in combination with carboplatin was evaluated in an ovarian cancer model, using human SKOV-3 cells grown as a solid tumor xenograft subcutaneously (s.c.) in nude mice.\nThe maximum tolerated dose (MTD) of the compound of formula (I) in combination with an optimal dose of carboplatin was defined in non-tumor bearing BALB/c nude mice in the experiments described above. […] Thus, in this study, using a human ovarian cell line derived xenograft (CDX) model, that schedule was applied and compared directly with the same order of administration with a 1 hr or 24 hr gap between compounds. In addition, the twice-weekly schedule was compared with a weekly schedule of 7 mg/kg BAL0891 (a weekly dose well below the MTD for compound of formula (I) monotherapy) using a 4 hr gap. Treatments continued until day 24 and tumor volumes and body weight were monitored until day 51."}, "[4]": {"conditions": "comparator Formula (I) monotherapy"}}, "note": "Marks after values point to notes of the source that are not given here."}
{"smiles": "N.N.O=C([O-])C1(C(=O)[O-])CCC1.[Pt+2]", "note": "[Carboplatin]", "values": [{"measurement": "Efficacy: ΔT/C Day 0 up to Day 31", "setting": "[1]; based on mean rate of growth (k), formula (I) 7 mg/kg 2qw i.v., carboplatin 60 mg/kg qw i.v., carboplatin first", "result": "0.75*"}, {"measurement": "Mean difference of mean rate of growth (k), Formula (I) vs. treatment", "setting": "[1]; [4]", "result": "−0.049"}, {"measurement": "Mean difference of mean rate of growth (k), Vehicle vs. treatment", "setting": "[1]; comparator Vehicle, day 0 to latest day 31", "result": 0.0350}, {"measurement": "Efficacy: ΔT/C Day 10", "setting": "[1]; mean change in tumor volume, formula (I) 7 mg/kg 2qw i.v., carboplatin 60 mg/kg qw i.v., carboplatin first", "result": 0.74}, {"measurement": "Tolerability (Day 10) ΔI/C", "setting": "[1]; mean fractional body weight change vs vehicle (BWday10/BWday0)", "result": 0.97}, {"measurement": "Tolerability (Day 10) ΔBW (%)", "setting": "[1]; mean ± SEM change in body weight, day 10", "result": "0.8 ± 1.2", "unit": "%"}, {"measurement": "Efficacy: ΔT/C Day 0 up to Day 17", "setting": "[2]; based on mean rate of growth (k), formula (I) 8 mg/kg qw first, carboplatin 60 mg/kg qw 4 h later", "result": 0.96}, {"measurement": "k means, Mean difference, Formula (I) vs. treatment", "setting": "[2]; [4]", "result": "−0.039"}, {"measurement": "Δ tumor volume on day 14, Mean difference, Formula (I) vs. treatment", "setting": "[2]; [4]", "result": "−350.8"}, {"measurement": "k means, Mean difference, Vehicle vs. treatment", "setting": "[2]; comparator Vehicle", "result": 0.007}, {"measurement": "Δ tumor volume on day 14, Mean difference, Vehicle vs. treatment", "setting": "[2]; comparator Vehicle", "result": 71.5}, {"measurement": "Efficacy: ΔT/C Day 14", "setting": "[2]; mean change in tumor volume, formula (I) 8 mg/kg qw i.v. first, carboplatin 60 mg/kg qw i.v. 4 h later", "result": 0.93}, {"measurement": "Tolerability (Day 14) ΔT/C", "setting": "[2]; mean fractional body weight change vs vehicle (BWday14/BWday0)", "result": 1.00}, {"measurement": "Tolerability (Day 14) ΔBW (%)", "setting": "[2]; mean ± SEM change in body weight, day 14", "result": "3.3 ± 2.6", "unit": "%"}, {"measurement": "ΔT/C", "setting": "[3]", "result": 0.72}]}
